# Source: article PMC12661400, “Oral bioavailable ITRI-148 degrades androgen receptor variants and overcomes antiandrogen resistance in advanced prostate cancer” (Neoplasia (New York, N.Y.), 2025)
# Values joined by “and” are separate entries in the source; they are usually repeats but may differ in a detail not shown here. Equal values may be shown once. Read-outs that look alike come from different tables or passages of the source.
# Experiments:
# [1] = tested on: AR; experiment: AR degradation by immunoblotting in CRPC cells; assay type: cell-based
# Method: Cell lysis, Western blotting, and AR ubiquitination were performed as described in [17]. Primary antibodies: AR (Millipore 06-680), AR-V7 (RevMAb Biosciences 31-1109-00), PSA (ABclonal A4355), NKX3-1 (Cell Signaling Technology 92998), GAPDH (Cell Signaling Technology 2118) and β-Actin (Sigma-Aldrich A5441).
# Fig. 1 ITRI-148 induces degradation of both AR and AR-V7 proteins in CRPC cells. […] (B) Expression of Flag-tagged AR-V7 in 293T cells following ITRI-148 treatment. Cells transiently expressing Flag-AR-V7 were pretreated with 50 μg/mL cycloheximide for 1 hour, then exposed to ITRI-148 at the indicated concentrations for 8 hours. AR-V7 expression was detected using an anti-Flag antibody. (C) Representative immunoblots showing AR protein levels in VCaP and CWR22Rv1 cells after 48 hours of ITRI-148 treatment. An N-terminal AR antibody was used to detect both full-length AR and LBD-truncated variants (AR-V(ΔLBD)) in CWR22Rv1 cells, while AR-V7 was detected using an AR-V7-specific antibody. DC₅₀ values were calculated from normalized band intensities, and Dₘₐₓ represents the maximal degradation achieved at 10 μM ITRI-148. (D) Immunofluorescence staining of AR after 24 or 48 hours of ITRI-148 treatment, detected using an N-terminal AR antibody. […] (F) Western blot analysis of ectopically expressed wild-type (WT) and mutant Myc-tagged AR in DU145 cells following 24 hours of treatment with 10 μM ITRI-148. Quantified AR levels are as indicated. TEXT PRINTED IN THE PICTURE: (C) ITRI-148: DC50 (μM) AR CWR22Rv1: 1.23 ± 1.86; DC50 (μM) AR VCaP: 0.05 ± 0.03; DC50 (μM) AR-V7 CWR22Rv1: 1.20 ± 0.92; DC50 (μM) AR-V7 VCaP: 0.02 ± 0.02; Dmax (%) AR CWR22Rv1: 65.02 ± 19.91; Dmax (%) AR VCaP: 80.49 ± 5.61; Dmax (%) AR-V7 CWR22Rv1: 72.10 ± 3.15; Dmax (%) AR-V7 VCaP: 91.36 ± 2.05
# [2] = tested on: CWR22Rv1 xenografts; experiment: Hormone-intact CWR22Rv1 xenograft study; assay type: in vivo
# Source text: Immunodifficient male CB-17 SCID mice (CB17/Icr-Prkdc^scid/IcrIcoCrlBltw) and NOD SCID mice (NOD.CB17-Prkdc^scid/NCrCrlBltw) mice at four to six weeks of age were purchased from BioLASCO Taiwan Co., Ilan, Taiwan. All mice were housed in conventional cages in the AAALAC Full Accreditation (2011) in Industrial Technology Research Institute and were allowed to acclimatize and recover from shipping-related stress for one week prior to the study. The health of the mice was monitored by daily observations. Animals were kept in rooms at temperature of 22–26°C with 40–70 % humidity, positive pressure, 60 % air recirculation, ventilation rate 15–20 changes per hour, and a controlled light-dark cycle (12–12 hours). The order and location of each animal cage was randomly assigned to minimize potential confounders. CWR22Rv1 cells (5 × 10^6) were suspended in 100 μL of PBS with 30 % Matrigel and subcutaneously implanted into the right flank of male CB-17 SCID mice. Tumors were measured with calipers, and tumor size was calculated as follows: tumor volume (V) = (L × S^2)/2 (L, longest diameter, mm; S, shortest diameter, mm). When mean tumor volume reached 150–200 mm^3, the mice were randomly assigned into indicated groups (n = 5-6/ group) and the day of initiating treatments was assigned as day 0. VCaP cells (5 × 10⁶) suspended in 50 % Matrigel were subcutaneously implanted into male NOD SCID mice. […] Tumor size and body weight of the animals were monitored and recorded two to three times per week. […] The drug antitumor efficacy was presented as percentages of TGI of each tested animal, calculated as follows: [1 − (final tumor volume ^treated group – initial tumor volume ^treated group) / (final tumor volume ^vehicle group – initial tumor volume ^vehicle group)] × 100. Body weight of each mouse was also compared to that on the first day of treatment (day 0) and expressed as a percentage of day 0 value. […] Statistical analysis of the differences between two drug and vehicle treated groups was determined by two-tailed Student’s t-test.
structure (smiles),measurement,setting,value
O=C1CCC(N2C(=O)c3cccc(NCC(=O)N4CCC(N5CCC(C#Cc6ccc(C7CCN(C8=Nn9c(nnc9C(F)(F)F)CC8)CC7)cc6)CC5)CC4)c3C2=O)C(=O)N1 (centres unmarked) [ITRI-148],DC50,"[1]; CWR22Rv1, 48 hours, read-out: DC50 AR",1230 ± 1860 nM
same,Dmax AR,"[1]; CWR22Rv1, maximal degradation at 10 μM",65.02 ± 19.91%
same,DC50,"[1]; VCaP cells, read-out: half-maximal degradation concentration (DC50) for AR",~50 nM
same,DC50,"[1]; VCaP, 48 hours, read-out: DC50 AR",50 ± 30 nM
same,Dmax AR,"[1]; VCaP, maximal degradation at 10 μM",80.49 ± 5.61% and 80%
same,toxicity reflected by weight-loss of the animals,[2]; PO 30-60 mg/kg BID,No toxicity reflected by weight-loss of the animals was observed
same,tumor growth inhibition (TGI),[2]; oral 30 mg/kg BID,38.08%
same,tumor growth inhibition (TGI),[2]; oral 60 mg/kg BID,69.39%
